# Results from patent US11718626B2, “Macrocyclic compounds for treatment of medical disorders” (Achillion Pharmaceuticals, Inc., priority 2017, dated 2023).
# Several values for one entry are separate records, joined by “and”; a condition that tells them apart may be missing. Identical values can stand only once. Like-named read-outs stand apart in the source and are kept apart here.
# Columns and labels:
# [1] = rcm bond, toluene, 80.0 °C
# [2] = rcm bond, Grubbs II, toluene, 80.0 °C
molecule,measurement,setting,value
"tert-Butyl (42S,44R,E)-16-Bromo-44-fluoro-3-oxo-6-oxa-2-aza-1(2,3)-pyridina-4(2,4)-pyrrolidinacyclotridecaphan-12-ene-41-carboxylate","ring closure, isolated yield","[1]; 16-membered ring, Grubbs II, 1.83 mM",59.3%
CC(=O)c1nn2c3c(cc(-c4cnc(C)nc4)cc13)CCCCC=CCc1cccc(c1)COC[C@@]13C[C@@H](C(=O)Nc4nc(Br)ccc4C)N(C(=O)C2)[C@@H]1C3,"ring closure, isolated yield","[1]; from C=CCCCCc1cc(-c2cnc(C)nc2)cc2c(C(C)=O)nn(CC(=O)N3[C@H](C(=O)Nc4nc(Br)ccc4C)C[C@@]4(COCc5cccc(CC=C)c5)C[C@@H]34)c12, 21-membered ring, Grubbs II, 1.83 mM, 16.0 h",40.9%
CC(=O)c1nn2c3c(cc(-c4cnc(C)nc4)cc13)CCCCCCC=Cc1cn(nn1)C[C@@]13C[C@@H](C(=O)Nc4nc(Br)ccc4C)N(C(=O)C2)[C@@H]1C3,"ring closure, yield after HPLC","[2]; from C=CCCCCCCc1cc(-c2cnc(C)nc2)cc2c(C(C)=O)nn(CC(=O)N3[C@H](C(=O)Nc4nc(Br)ccc4C)C[C@@]4(Cn5cc(C=C)nn5)C[C@@H]34)c12, 20-membered ring, 2.6 mM, 16.0 h",3.97%
same,"ring closure, yield after HPLC","[2]; from C=CCCCCCCc1cc(-c2cnc(C)nc2)cc2c(C(C)=O)nn(CC(=O)N3[C@H](C(=O)Nc4nc(Br)ccc4C)C[C@@]4(Cn5cc(C=C)nn5)C[C@@H]34)c12, 2.6 mM, 16.0 h",6.93%
same,"ring closure, isolated yield","[1]; from C=CCCCCCCc1cc(-c2cnc(C)nc2)cc2c(C(C)=O)nn(CC(=O)N3[C@H](C(=O)Nc4nc(Br)ccc4C)C[C@@]4(Cn5cc(C=C)nn5)C[C@@H]34)c12, 20-membered ring, Grubbs II, 2.6 mM, 16.0 h",59.4%
CC(C)(C)OC(=O)N1[C@H]2C[C@@]3(Cc4nc(no4)C=CCOCc4ccc(Br)nc4NC2=O)C[C@@H]13,"ring closure, isolated yield","[1]; from C=CCOCc1ccc(Br)nc1NC(=O)[C@@H]1C[C@@]2(Cc3nc(C=C)no3)C[C@H]2N1C(=O)OC(C)(C)C, 16-membered ring, Zhan-1B, 1.75 mM, 16.0 h",56.2%
CC(=O)c1nn2c3c(cc(-c4cnc(C)nc4)cc13)C=CCCCCCN(C)C[C@@]13C[C@@H](C(=O)Nc4nc(Br)ccc4C)N(C(=O)C2)[C@@H]1C3,"ring closure, isolated yield","[1]; from C=CCCCCCN(C)C[C@@]12C[C@@H](C(=O)Nc3nc(Br)ccc3C)N(C(=O)Cn3nc(C(C)=O)c4cc(-c5cnc(C)nc5)cc(C=C)c43)[C@@H]1C2, 17-membered ring, Zhan-1B, 4.38 mM",47.4%
CC(C)(C)OC(=O)N1[C@H]2C[C@@]3(CCCC=CCOCc4ccc(Br)nc4NC2=O)C[C@@H]13,"ring closure, isolated yield","[1]; from C=CCCC[C@@]12C[C@@H](C(=O)Nc3nc(Br)ccc3COCC=C)N(C(=O)OC(C)(C)C)[C@@H]1C2, 15-membered ring, Grubbs II, 1.87 mM",70.4%
CC(=O)c1nn2c3cc(ccc13)NC(=O)OCCCCC=CCOC[C@@]13C[C@@H](C(=O)Nc4nc(Br)ccc4C)N(C(=O)C2)[C@@H]1C3,"ring closure, isolated yield","[1]; from C=CCCCCOC(=O)Nc1ccc2c(C(C)=O)nn(CC(=O)N3[C@H](C(=O)Nc4nc(Br)ccc4C)C[C@@]4(COCC=C)C[C@@H]34)c2c1, 21-membered ring, Grubbs II, 1.7 mM, 16.0 h",51.2%
CC(=O)c1nn2c3c(cc(-c4cnc(C)nc4)cc13)CCCCC=CCC=C[C@@]13C[C@@H](C(=O)Nc4nc(Br)ccc4C)N(C(=O)C2)[C@@H]1C3,"ring closure, isolated yield","[1]; from C=CCC=C[C@@]12C[C@@H](C(=O)Nc3nc(Br)ccc3C)N(C(=O)Cn3nc(C(C)=O)c4cc(-c5cnc(C)nc5)cc(CCCCC=C)c43)[C@@H]1C2, 17-membered ring, Grubbs II, 2.27 mM, 16.0 h",21.8%
CC(C)(C)OC(=O)N1[C@H]2C[C@@]3(CNC(=O)C(C)(C)CC=CCOCc4ccc(Br)nc4NC2=O)C[C@@H]13,"ring closure, isolated yield","[1]; from C=CCOCc1ccc(Br)nc1NC(=O)[C@@H]1C[C@@]2(CNC(=O)C(C)(C)CC=C)C[C@H]2N1C(=O)OC(C)(C)C, 17-membered ring, Grubbs II, 3.14 mM, 16.0 h",83.1%
CC(=O)c1nn2c3cc(ccc13)NC(=O)OCCCC=CCOC[C@@]13C[C@@H](C(=O)Nc4nc(Br)ccc4C)N(C(=O)C2)[C@@H]1C3,"ring closure, yield after HPLC","[2]; from C=CCCCOC(=O)Nc1ccc2c(C(C)=O)nn(CC(=O)N3[C@H](C(=O)Nc4nc(Br)ccc4C)C[C@@]4(COCC=C)C[C@@H]34)c2c1, 20-membered ring, 2.0 mM, 2.0 h",68.5%
CC(=O)c1nn2c3c(cc(-c4cnc(C)nc4)cc13)CCCCC=CCc1cccc(n1)OC[C@@]13C[C@@H](C(=O)Nc4nc(Br)ccc4C)N(C(=O)C2)[C@@H]1C3,"ring closure, yield after HPLC","[2]; from C=CCCCCc1cc(-c2cnc(C)nc2)cc2c(C(C)=O)nn(CC(=O)N3[C@H](C(=O)Nc4nc(Br)ccc4C)C[C@@]4(COc5cccc(CC=C)n5)C[C@@H]34)c12, 1.6 mM, 16.0 h",78.1%
CC(=O)c1nn2c3c(cc(-c4cnc(C)nc4)cc13)CCC=CCCCC(=O)NC[C@@]13C[C@@H](C(=O)Nc4nc(Br)ccc4C)N(C(=O)C2)[C@@H]1C3,"ring closure, yield after HPLC","[2]; from C=CCCCC(=O)NC[C@@]12C[C@@H](C(=O)Nc3nc(Br)ccc3C)N(C(=O)Cn3nc(C(C)=O)c4cc(-c5cnc(C)nc5)cc(CCC=C)c43)[C@@H]1C2, 17-membered ring, 7.0 mM, 2.5 h",15.8%
same,"ring closure, yield after HPLC","[2]; from C=CCCCC(=O)NC[C@@]12C[C@@H](C(=O)Nc3nc(Br)ccc3C)N(C(=O)Cn3nc(C(C)=O)c4cc(-c5cnc(C)nc5)cc(CCC=C)c43)[C@@H]1C2, 18-membered ring, 7.0 mM, 2.5 h",11.6%
CC(=O)c1nn2c3c(nc(-c4cnc(C)nc4)cc13)CC=CCCCC(=O)NC[C@@]13C[C@@H](C(=O)Nc4nc(C(F)(F)F)ccc4C)N(C(=O)C2)[C@@H]1C3,"ring closure, yield after HPLC","[2]; from C=CCCCC(=O)NC[C@@]12C[C@@H](C(=O)Nc3nc(C(F)(F)F)ccc3C)N(C(=O)Cn3nc(C(C)=O)c4cc(-c5cnc(C)nc5)nc(CC=C)c43)[C@@H]1C2, 17-membered ring, 1.4 mM",26.9%
CN1CCCCC=CCc2ccc(Br)nc2NC(=O)[C@@H]2C[C@]3(C[C@H]3N2C(=O)OC(C)(C)C)C1,"ring closure, isolated yield","[1]; from C=CCCCCN(C)C[C@@]12C[C@@H](C(=O)Nc3nc(Br)ccc3CC=C)N(C(=O)OC(C)(C)C)[C@@H]1C2, 16-membered ring, Grubbs II, 1.83 mM",93.5%
CC(=O)c1nn2c3cc(c(-c4cnc(C)nc4)cc13)OCCCCC=CCOC[C@@]13C[C@@H](C(=O)Nc4nc(Br)ccc4C)N(C(=O)C2)[C@@H]1C3,"ring closure, yield after HPLC","[2]; from C=CCCCCOc1cc2c(cc1-c1cnc(C)nc1)c(C(C)=O)nn2CC(=O)N1[C@H](C(=O)Nc2nc(Br)ccc2C)C[C@@]2(COCC=C)C[C@@H]12, 18-membered ring, 1.32 mM, 16.0 h",10.6% and 7.07%
Cc1ncc(-c2cc3c(C#N)nn4c3c(n2)CC=CCCCC(=O)NC[C@@]23C[C@@H](C(=O)Nc5nc(Br)ccc5C)N(C(=O)C4)[C@@H]2C3)cn1,"ring closure, isolated yield","[1]; from C=CCCCC(=O)NC[C@@]12C[C@@H](C(=O)Nc3nc(Br)ccc3C)N(C(=O)Cn3nc(C#N)c4cc(-c5cnc(C)nc5)nc(CC=C)c43)[C@@H]1C2, 17-membered ring, Grubbs II, 1.27 mM, 16.0 h",44.8%
CC(=O)c1nn2c3cc(ccc13)NC(=O)NCCCC=CCOC[C@@]13C[C@@H](C(=O)Nc4nc(Br)ccc4C)N(C(=O)C2)[C@@H]1C3,"ring closure, yield after HPLC","[2]; from C=CCCCNC(=O)Nc1ccc2c(C(C)=O)nn(CC(=O)N3[C@H](C(=O)Nc4nc(Br)ccc4C)C[C@@]4(COCC=C)C[C@@H]34)c2c1, 20-membered ring, 1.6 mM, 16.0 h",2.1%
"(41R,43S,45S,E)-13-Acetyl-N-(6-bromo-3-methylpyridin-2-yl)-3,14-dioxo-11H-6,15-dioxa-42,13-diaza-1(1,6)-indazola-4(2,5)-bicyclo[3.1.0]hexanacyclopentadecaphan-8-ene-43-carboxamide","ring closure, isolated yield","[1]; 20-membered ring, Grubbs II, 1.48 mM",4.1%
CC(C)(C)OC(=O)N1[C@H]2C[C@@]3(CNC(=O)C(F)(F)CC=CCOCc4ccc(Br)nc4NC2=O)C[C@@H]13,"ring closure, isolated yield","[1]; from C=CCOCc1ccc(Br)nc1NC(=O)[C@@H]1C[C@@]2(CNC(=O)C(F)(F)CC=C)C[C@H]2N1C(=O)OC(C)(C)C, 17-membered ring, Grubbs II, 2.0 mM",96.5%
CC(=O)c1nn2c3cc(ccc13)C(=O)NCCCCC=CCOC[C@@]13C[C@@H](C(=O)Nc4nc(Br)ccc4C)N(C(=O)C2)[C@@H]1C3,"ring closure, isolated yield","[1]; from C=CCCCCNC(=O)c1ccc2c(C(C)=O)nn(CC(=O)N3[C@H](C(=O)Nc4nc(Br)ccc4C)C[C@@]4(COCC=C)C[C@@H]34)c2c1, 20-membered ring, Grubbs II, 1.44 mM, 16.0 h",45.6%
CN1CCCCCC=C[C@@]23C[C@@H](C(=O)Nc4nc(Br)ccc4C1)N(C(=O)OC(C)(C)C)[C@@H]2C3,"ring closure, isolated yield","[1]; from C=CCCCCCN(C)Cc1ccc(Br)nc1NC(=O)[C@@H]1C[C@@]2(C=C)C[C@H]2N1C(=O)OC(C)(C)C, 16-membered ring, Grubbs II, 1.78 mM, 16.0 h",72.4%
CC(=O)c1nn2c3c(cc(-c4cnc(C)nc4)cc13)CC=CCCCC(=O)N(C)C[C@@]13C[C@@H](C(=O)Nc4ccc(C)c(C(F)(F)F)n4)N(C(=O)C2)[C@@H]1C3,"ring closure, isolated yield","[1]; from C=CCCCC(=O)N(C)C[C@@]12C[C@@H](C(=O)Nc3ccc(C)c(C(F)(F)F)n3)N(C(=O)Cn3nc(C(C)=O)c4cc(-c5cnc(C)nc5)cc(CC=C)c43)[C@@H]1C2, 17-membered ring, Grubbs II, 1.24 mM",70.6%
CC(=O)c1nn2c3c(cc(-c4cnc(C)nc4)cc13)CCCCCCC=CCOC[C@@]13C[C@@H](C(=O)Nc4nc(Br)ccc4C)N(C(=O)C2)[C@@H]1C3,"ring closure, isolated yield","[1]; from C=CCCCCCCc1cc(-c2cnc(C)nc2)cc2c(C(C)=O)nn(CC(=O)N3[C@H](C(=O)Nc4nc(Br)ccc4C)C[C@@]4(COCC=C)C[C@@H]34)c12, 19-membered ring, Grubbs II, 3.0 mM, 4.0 h",88.7%
"tert-Butyl (41R,43S,45R,E)-16-Bromo-8,8-difluoro-3,7-dioxo-13-oxa-42,2,6-triaza-1(2,3)-pyridina-4(3,5)-bicyclo[3.1.0]hexanacyclotetradecaphan-10-ene-42-carboxylate","ring closure, isolated yield","[1]; 17-membered ring, Grubbs II, 2.0 mM",96.5%
